± gives the expanded uncertainty stated by the source.
Conditions: 323.14 K, Liquid, Vibrating tube method

CCCCCC(=O)OCC(COC(=O)CCCCC)(COC(=O)CCCCC)COC(=O)CCCCC [pentaerythritol tetrahexanoate]
Conditions | mass density [kg/m3]
4906.2 kPa | 976 ± 1.2
4926.8 kPa | 976.1 ± 1.2
4951.5 kPa | 976.2 ± 1.2
4972.1 kPa | 976.2 ± 1.2
4997.4 kPa | 976.1 ± 1.2
5018.6 kPa | 976.1 ± 1.2
5041 kPa | 976.1 ± 1.2
5066.8 kPa | 976.1 ± 1.2
5088.6 kPa | 976.2 ± 1.2
5114.4 kPa | 976.3 ± 1.2
5140.5 kPa | 976.2 ± 1.2
5162.3 kPa | 976.3 ± 1.2
5184.8 kPa | 976.5 ± 1.2
5212 kPa | 976.3 ± 1.2
5233.9 kPa | 976.3 ± 1.2
5261.4 kPa | 976.3 ± 1.2
5289.1 kPa | 976.3 ± 1.2
5313.2 kPa | 976.3 ± 1.2
5337.7 kPa | 976.4 ± 1.2
5363.2 kPa | 976.4 ± 1.2
5392.1 kPa | 976.2 ± 1.2
5421.2 kPa | 976.4 ± 1.2
5445 kPa | 976.5 ± 1.2
5469.8 kPa | 976.5 ± 1.2
5499.7 kPa | 976.6 ± 1.2
5530.1 kPa | 976.4 ± 1.2
5555.5 kPa | 976.6 ± 1.2
5581.3 kPa | 976.6 ± 1.2
5611.7 kPa | 976.5 ± 1.2
5635.4 kPa | 976.5 ± 1.2
5659 kPa | 976.7 ± 1.2
5678.8 kPa | 976.7 ± 1.2
5695.8 kPa | 976.6 ± 1.2
5715.8 kPa | 976.7 ± 1.2
5733 kPa | 976.7 ± 1.2
5749.7 kPa | 976.7 ± 1.2
5769.6 kPa | 976.7 ± 1.2
5786.4 kPa | 976.7 ± 1.2
5806.6 kPa | 976.8 ± 1.2
5823.9 kPa | 976.7 ± 1.2
5844.1 kPa | 976.7 ± 1.2
5861.2 kPa | 976.8 ± 1.2
5882.2 kPa | 976.8 ± 1.2
5899.3 kPa | 976.7 ± 1.2
5920.4 kPa | 976.7 ± 1.2
5941.5 kPa | 976.8 ± 1.2
5959.1 kPa | 976.8 ± 1.2
5976.7 kPa | 976.8 ± 1.2
5997.6 kPa | 976.8 ± 1.2
6015.1 kPa | 976.8 ± 1.2
6036.5 kPa | 977 ± 1.2
6054.3 kPa | 977 ± 1.2
6075.8 kPa | 976.9 ± 1.2
6094.3 kPa | 976.9 ± 1.2
6115.5 kPa | 976.8 ± 1.2
6134 kPa | 976.9 ± 1.2
6155.6 kPa | 976.8 ± 1.2
6178.1 kPa | 977.1 ± 1.2
6196.6 kPa | 977 ± 1.2
6361.8 kPa | 977.1 ± 1.2
6380.8 kPa | 977.1 ± 1.2
6403.6 kPa | 977.1 ± 1.2
6426.8 kPa | 977.2 ± 1.2
6446.5 kPa | 977.1 ± 1.2
6465.6 kPa | 977.2 ± 1.2
6489.3 kPa | 977.1 ± 1.2
6576.9 kPa | 977.3 ± 1.2
6597.3 kPa | 977.2 ± 1.2
6621.1 kPa | 977.3 ± 1.2
6641.5 kPa | 977.4 ± 1.2
6666.6 kPa | 977.2 ± 1.2
6690.9 kPa | 977.4 ± 1.2
6711.7 kPa | 977.4 ± 1.2
6732.6 kPa | 977.4 ± 1.2
6757.6 kPa | 977.4 ± 1.2
6778.7 kPa | 977.3 ± 1.2
6803.9 kPa | 977.3 ± 1.2
6825.5 kPa | 977.5 ± 1.2
6851.4 kPa | 977.5 ± 1.2
6873.7 kPa | 977.5 ± 1.2
6899.4 kPa | 977.5 ± 1.2
6921.3 kPa | 977.5 ± 1.2
6947.4 kPa | 977.5 ± 1.2
6973.7 kPa | 977.5 ± 1.2
6995.9 kPa | 977.5 ± 1.2
7019.4 kPa | 977.6 ± 1.2
7043.5 kPa | 977.5 ± 1.2
7070.3 kPa | 977.6 ± 1.2
7093.1 kPa | 977.7 ± 1.2
7120.7 kPa | 977.6 ± 1.2
7143.5 kPa | 977.6 ± 1.2
7170.6 kPa | 977.7 ± 1.2
7194.3 kPa | 977.8 ± 1.2
7222.1 kPa | 977.7 ± 1.2
7250.4 kPa | 977.7 ± 1.2
7273.9 kPa | 977.8 ± 1.2
7297.5 kPa | 977.6 ± 1.2
7326.7 kPa | 977.8 ± 1.2
7351.7 kPa | 977.8 ± 1.2
7381.1 kPa | 977.8 ± 1.2
7460.9 kPa | 977.8 ± 1.2
7573.4 kPa | 977.9 ± 1.2
7631.6 kPa | 977.9 ± 1.2
7784.6 kPa | 978.1 ± 1.2
7812.4 kPa | 978 ± 1.2
7839.9 kPa | 978.1 ± 1.2
7863.3 kPa | 978.1 ± 1.2
8237.7 kPa | 978.4 ± 1.2
8267.6 kPa | 978.3 ± 1.2
8292.8 kPa | 978.4 ± 1.2
8323.1 kPa | 978.5 ± 1.2
8348.5 kPa | 978.4 ± 1.2
8379 kPa | 978.5 ± 1.2
8410 kPa | 978.4 ± 1.2
8436.3 kPa | 978.5 ± 1.2
8466.9 kPa | 978.5 ± 1.2
8498.7 kPa | 978.5 ± 1.2
8525.2 kPa | 978.6 ± 1.2
8557.3 kPa | 978.5 ± 1.2
8584.2 kPa | 978.6 ± 1.2
8617 kPa | 978.7 ± 1.2
8645.1 kPa | 978.7 ± 1.2
8678.7 kPa | 978.7 ± 1.2
8712.2 kPa | 978.7 ± 1.2
8740.6 kPa | 978.8 ± 1.2
8775.3 kPa | 978.7 ± 1.2
8805.1 kPa | 978.8 ± 1.2
8840.3 kPa | 978.8 ± 1.2
8877 kPa | 978.8 ± 1.2
8907.8 kPa | 978.7 ± 1.2
8944 kPa | 978.8 ± 1.2
8971.8 kPa | 978.9 ± 1.2
8997.6 kPa | 978.9 ± 1.2
9020.2 kPa | 978.9 ± 1.2
9142.1 kPa | 979 ± 1.2
9164.7 kPa | 979.1 ± 1.2
9183.3 kPa | 978.9 ± 1.2
9204.3 kPa | 978.9 ± 1.2
9226.4 kPa | 978.9 ± 1.2
9720.5 kPa | 979.3 ± 1.2
9812.4 kPa | 979.5 ± 1.2
9820.8 kPa | 979.4 ± 1.2
9834.6 kPa | 979.4 ± 1.2
9846 kPa | 979.4 ± 1.2
9859.9 kPa | 979.4 ± 1.2

— the NIST ThermoML archive (doi:10.1021/je060271a)
